The values below come from PubChem BioAssay (NCI).

Among the test systems are SNB-75 CNS; ACHN renal; EKVX NSCLC; NCI-H23 lung; HT29 colon; SN12C renal; RXF 393 renal; SK-OV-3 ovarian; MDA-MB-231 breast; COLO 205 colon.
Common to all, as to assay: DTP human tumour cell line panel, 48 h

Values joined by “and” are separate entries in the source; they are usually repeats but may differ in a detail not shown here. Equal entries are not always repeated.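 A five-concentration, 48-hour dose response in 96-well plates underlies each endpoint, interpolated linearly between surrounding concentrations. GI50 is the concentration that inhibits growth by half. At the TGI there is no net growth.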

For orientation: GI50 means the concentration at which growth is held to half of that of the control. For orientation: TGI means the concentration at which net growth stops. The low end stands for more potent growth arrest, the high end for less potent growth arrest. Consider `CN(C)c1ccc(C(=N)c2ccc(N(C)C)cc2)cc1`, for which the GI50 with SNB-75 CNS is 1.65 µM and 1.63 µM; in the test with ACHN renal it was 6.5 µM and 7.39 µM; with EKVX NSCLC, 5.33 µM and 5.17 µM; in the test on NCI-H23 lung it was 4.47 µM and 2.16 µM; with HT29 colon, 1.32 µM and 2.11 µM; in the test on SN12C renal, 6.32 µM and 6.04 µM. For the same compound, the GI50 in the test with RXF 393 renal is 2.93 µM and 2.86 µM; in the test with SK-OV-3 ovarian it was 3.55 µM and 2.92 µM; in the test with MDA-MB-231 breast, 5.77 µM and 7.67 µM; with COLO 205 colon it was 2.49 µM and 2.16 µM. The total growth inhibition concentration (TGI) is 11.4 µM and 7.35 µM with SNB-75 CNS; over 100 µM in the test on ACHN renal; over 100 µM in the test with EKVX NSCLC; 34.6 µM and 6.59 µM in the test with NCI-H23 lung; 11.6 µM and 16.4 µM in the test with HT29 colon; over 100 µM in the test on SN12C renal. In addition, the TGI is 12.2 µM and 19.3 µM in the test with RXF 393 renal; 16.6 µM and 22.3 µM in the test with SK-OV-3 ovarian; 47.5 µM and 30.9 µM in the test with MDA-MB-231 breast; 10.7 µM and 8.83 µM in the test on COLO 205 colon.

As for `O=C1/C(=C/c2ccc(F)c(F)c2)CN(C(=O)C(Cl)Cl)C/C1=C\c1ccc(F)c(F)c1`, the GI50 with SNB-75 CNS was 0.29 µM; with ACHN renal, 0.0776 µM; with EKVX NSCLC, 0.188 µM; in the test with NCI-H23 lung, 0.139 µM; with HT29 colon, 0.0359 µM; with SN12C renal, 0.112 µM. Moreover, the 50% growth inhibitory concentration (GI50) in the test on RXF 393 renal is 0.182 µM; in the test with SK-OV-3 ovarian it was 0.492 µM; in the test with MDA-MB-231 breast, 0.194 µM; with COLO 205 colon, 0.175 µM. The TGI in the test with SNB-75 CNS is 1.3 µM; in the test with ACHN renal, 0.249 µM; with EKVX NSCLC, 0.506 µM; in the test on NCI-H23 lung it was 0.428 µM; with SN12C renal it was 0.381 µM; in the test with RXF 393 renal, 0.399 µM. Further, the concentration for total growth inhibition (TGI) in the test on SK-OV-3 ovarian was 1.78 µM; in the test with MDA-MB-231 breast it was 0.692 µM; in the test on COLO 205 colon, 0.756 µM.

Regarding `CCCCC[C@H]1CC=C2C(=O)C=C[C@@H]2CC=CCCCC(=O)O[C@@H](CCCCC)CC=C2C(=O)C=C[C@@H]2CC=CCCCC(=O)O[C@@H](CCCCC)CC=C2C(=O)C=C[C@@H]2CC=CCCCC(=O)O1`, the GI50 was 4.8 µM with SNB-75 CNS; 0.438 µM with ACHN renal; 0.414 µM in the test on EKVX NSCLC; 0.3 µM in the test with NCI-H23 lung; 0.313 µM in the test with HT29 colon; 0.277 µM in the test on SN12C renal. The 50% growth inhibitory concentration (GI50) with RXF 393 renal was 0.194 µM; in the test with SK-OV-3 ovarian, 1.62 µM; in the test on MDA-MB-231 breast, 0.249 µM; in the test on COLO 205 colon it was 0.169 µM. Besides, the TGI in the test with SNB-75 CNS is over 8.75 µM; in the test on ACHN renal, over 8.75 µM; in the test with EKVX NSCLC, 6.31 µM; in the test with NCI-H23 lung, 1.93 µM; in the test with HT29 colon, 1.21 µM; in the test on SN12C renal, over 8.75 µM. In addition, the TGI in the test on RXF 393 renal was 0.422 µM; in the test with SK-OV-3 ovarian, over 8.75 µM; in the test on MDA-MB-231 breast it was 0.697 µM; with COLO 205 colon, 0.368 µM.

Regarding `Oc1[nH]c(N=C2N=c3ccccc3=N2)c2ccccc12`, the GI50 is 10.9 µM in the test on SNB-75 CNS; 12.3 µM in the test with ACHN renal; 4.22 µM in the test on EKVX NSCLC; 7.29 µM in the test with NCI-H23 lung; 9.18 µM in the test on HT29 colon; 12.8 µM in the test on SN12C renal. Moreover, the GI50 is 8.85 µM in the test with RXF 393 renal, 12.1 µM in the test with SK-OV-3 ovarian, 15.2 µM in the test with MDA-MB-231 breast and 6.39 µM in the test with COLO 205 colon. Further, the TGI turned out to be 31.5 µM in the test with SNB-75 CNS; 29 µM in the test with ACHN renal; 52.2 µM in the test with EKVX NSCLC; 52.6 µM with NCI-H23 lung; 39.7 µM with HT29 colon; 36.7 µM in the test with SN12C renal. The total growth inhibition concentration (TGI) in the test on RXF 393 renal turned out to be 22.2 µM; in the test on SK-OV-3 ovarian it was 27.7 µM; in the test with MDA-MB-231 breast it was 46.2 µM; in the test on COLO 205 colon it was 20.5 µM.

Turning to `O=C(O)C(Br)C(Br)C(=O)O` (stereo not drawn), the total growth inhibition concentration (TGI) with SNB-75 CNS, in the test on ACHN renal, in the test on EKVX NSCLC, in the test with NCI-H23 lung, with HT29 colon and with SN12C renal was over 100 µM in each case. For the same compound, the TGI with RXF 393 renal, in the test with SK-OV-3 ovarian, in the test on MDA-MB-231 breast and with COLO 205 colon was over 100 µM throughout.

With `COc1cc2c3c(n(CCCCNC(=O)OC(C)(C)C)c(=O)c2cc1OC)-c1cc2c(cc1C3=O)OCO2`, the GI50 with SNB-75 CNS is 33.2 µM; with ACHN renal it was 20.1 µM; with EKVX NSCLC it was over 100 µM; in the test on NCI-H23 lung it was over 100 µM; in the test with HT29 colon, over 100 µM; with SN12C renal, 78 µM. Further, the GI50 is 17.5 µM in the test with RXF 393 renal, over 100 µM in the test with SK-OV-3 ovarian, over 100 µM in the test with MDA-MB-231 breast and over 100 µM with COLO 205 colon. The TGI in the test with SNB-75 CNS, in the test with ACHN renal, with EKVX NSCLC, with NCI-H23 lung, in the test on HT29 colon and with SN12C renal was over 100 µM each time. For the same compound, the TGI was 62.1 µM with RXF 393 renal, over 100 µM in the test on SK-OV-3 ovarian, over 100 µM with MDA-MB-231 breast and over 100 µM with COLO 205 colon.

Consider `CCN1C(=O)N(CC)C2C1NN=c1s/c(=C\c3cccs3)c(=O)n12` (stereo not drawn), for which the 50% growth inhibitory concentration (GI50) with SNB-75 CNS was 0.0976 µM; in the test with ACHN renal it was 0.253 µM; in the test with NCI-H23 lung it was 0.375 µM; with HT29 colon, 0.0557 µM; in the test on SN12C renal, 0.555 µM; in the test on RXF 393 renal it was 0.141 µM. Moreover, the GI50 in the test on SK-OV-3 ovarian is 0.649 µM; with MDA-MB-231 breast it was 0.468 µM; with COLO 205 colon it was 0.154 µM. Besides, the concentration for total growth inhibition (TGI) in the test with SNB-75 CNS, in the test with ACHN renal, in the test on EKVX NSCLC, in the test on NCI-H23 lung, with HT29 colon and in the test with SN12C renal was over 100 µM in each case. Also, the TGI in the test on RXF 393 renal, in the test with SK-OV-3 ovarian, with MDA-MB-231 breast and in the test with COLO 205 colon was over 100 µM in each case.
